Laboratory results taken from patent US20140378378A1, “ERYTHROPOIETIN-DERIVED PEPTIDE AND USE THEREFOR” (priority 2011, published 2014).

System: cerebral infarction induced Sprague-Dawley rat models
Experiment: Cerebral infarction animal experiment: middle cerebral artery blockage/reperfusion, infarct volume by TTC dye
Type: in vivo
Settings: 3000 IU/kg EPO injected right after reperfusion, measured after 24 hours
Excerpt: In the present experiment, Spague-Dawley (SD) rats weighing about 280 g to about 330 g were used, which were purchased from Koatech Inc. (Seoul, Korea). The number of rats used was 39, wherein 13 of them were used as a control group and another 26 were divided into 13 in a MKX-2 treatment group and 13 in an EPO treatment group.
To induce cerebral infarction, a method of temporarily blocking a left middle cerebral artery and then reperfusing the same was used, and an intraluminal filament technique, which was modified from the Koizumi method was used. Then, each SD rat was anesthetized with a mixture gas of 70% nitrous oxide and 30% oxygen along with isoflurane (3% for induction and 2% for surgical procedure). During the surgery, an excision was made slightly leftwards from the center of the neck and the left common carotid artery was carefully separated without damaging surrounding vagus nerves. […]
The cerebral infarction area was measured by an image analyzer with LeicaQwin program (Leica Microsystem Image Solution Ltd., Cambridge, England) and a volume (mm^3) was calculated as a sum of infarct volumes (=infarct area of a slice×thickness) of the slices, and then an average and a standard deviation were calculated for each experimental group. […]

Substance: EPO: erythropoietin; the EPO used was an Eporon injection (Dong-A Pharmaceuticals, Korea)
- volume of cerebral infarction: 246.27 ± 37.52 mm^3
